Structures can show the parent of a compound that is named as a salt. Where two headings read alike, the source gives them in different places.
What was measured:
[1] = tested on: phosphorylation of the IRF-3 protein in MDA-MB-468 cells; test: pIRF3 immunocytochemistry cell based assay; settings: Homo sapiens
Method in brief: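 After 2 h stimulation with Poly(I:C) (10 ug/ml), following 1 h compound pre-treatment (10-point, 3-fold dilution, top 10 uM), MDA-MB-468 cells were fixed and stained with anti-pIRF3 antibody. pIRF3 fluorescence was normalized to PI staining or cell count on an Acumen cytometer. IC50 curves were derived from this.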

IKKε = biological target: T1, IKKε (Homo sapiens, UniProt Q14164); test: IKKe Biochemical Assay; settings: read-out: IKKε IC50
T1 sequence (Q14164 1-716): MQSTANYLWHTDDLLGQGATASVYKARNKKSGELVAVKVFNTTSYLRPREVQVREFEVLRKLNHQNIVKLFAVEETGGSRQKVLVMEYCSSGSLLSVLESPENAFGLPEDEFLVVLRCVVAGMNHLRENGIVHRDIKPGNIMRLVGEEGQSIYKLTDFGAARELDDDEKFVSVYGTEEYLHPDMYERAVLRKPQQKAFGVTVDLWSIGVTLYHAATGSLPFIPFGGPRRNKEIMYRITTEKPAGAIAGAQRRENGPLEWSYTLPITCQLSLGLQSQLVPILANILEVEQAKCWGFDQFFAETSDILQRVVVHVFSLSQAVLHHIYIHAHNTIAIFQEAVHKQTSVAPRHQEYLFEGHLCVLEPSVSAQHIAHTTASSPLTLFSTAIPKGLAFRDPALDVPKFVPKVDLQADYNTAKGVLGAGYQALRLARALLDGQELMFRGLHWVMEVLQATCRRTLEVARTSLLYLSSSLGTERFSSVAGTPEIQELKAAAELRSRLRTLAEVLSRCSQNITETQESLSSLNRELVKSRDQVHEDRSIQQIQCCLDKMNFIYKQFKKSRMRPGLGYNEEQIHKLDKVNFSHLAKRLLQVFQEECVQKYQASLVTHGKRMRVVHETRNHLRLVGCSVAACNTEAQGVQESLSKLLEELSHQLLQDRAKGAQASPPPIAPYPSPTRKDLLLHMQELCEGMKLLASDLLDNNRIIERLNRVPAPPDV
Method in brief: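 Activity was measured as mobility-shift separation of phosphorylated from unphosphorylated substrate on a LabChip EZ Reader. Compound was titrated from 30 uM final in 10 points, 1:4 steps, with 1% DMSO, and enzyme plus substrate reacted 90 min at 25° C before stop buffer. Control wells held 10 uM staurosporine.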

TBK1 = biological target: T2, TBK1 (Homo sapiens, UniProt Q9UHD2); test: TBK Biochemical Assay; settings: read-out: TBK1 IC50
T2 sequence (Q9UHD2 1-729): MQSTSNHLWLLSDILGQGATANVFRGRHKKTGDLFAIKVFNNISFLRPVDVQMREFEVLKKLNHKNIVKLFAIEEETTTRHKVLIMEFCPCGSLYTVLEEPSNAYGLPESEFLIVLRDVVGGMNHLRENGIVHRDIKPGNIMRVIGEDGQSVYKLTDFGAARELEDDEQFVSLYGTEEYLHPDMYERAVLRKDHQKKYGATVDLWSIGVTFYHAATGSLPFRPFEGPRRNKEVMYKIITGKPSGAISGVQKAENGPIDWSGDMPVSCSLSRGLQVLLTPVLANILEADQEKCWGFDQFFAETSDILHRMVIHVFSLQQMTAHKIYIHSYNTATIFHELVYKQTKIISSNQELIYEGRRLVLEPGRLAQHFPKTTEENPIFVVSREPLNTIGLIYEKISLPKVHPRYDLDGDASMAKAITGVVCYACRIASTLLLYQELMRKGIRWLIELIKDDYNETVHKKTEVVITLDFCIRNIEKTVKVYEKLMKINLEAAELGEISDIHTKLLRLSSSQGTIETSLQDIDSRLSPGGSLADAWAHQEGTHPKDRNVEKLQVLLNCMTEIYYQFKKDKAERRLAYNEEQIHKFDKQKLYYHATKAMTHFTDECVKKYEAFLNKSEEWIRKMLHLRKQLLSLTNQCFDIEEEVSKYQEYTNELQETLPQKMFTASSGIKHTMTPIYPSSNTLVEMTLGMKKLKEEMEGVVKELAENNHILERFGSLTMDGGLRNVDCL
Method in brief: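 Caliper LabChip mobility-shift readout of substrate and product after 90 min of TBK1 reaction at 25° C and stop-buffer addition. Compounds tested in 1:4 serial dilution over 10 points from 30 uM final at 1% DMSO; staurosporine 10 uM final defines full inhibition.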

[2] = MDA-MB-468 cells, Poly(I:C) stimulation, read-out: pIRF3 IC50
[3] = MDA-MB-468, read-out: pIRF3 IC50

Row | Compound | IC50 [1, 2] | IC50 (IKKε) | IC50 (TBK1) | IC50 [1, 3]
1 | COc1cc(C(=O)N(C)CCO)ncc1-c1cc2nccc(-c3ccc(OC4CCOCC4)c(C#N)n3)c2o1 [Compound 376, 5-[7-[6-cyano-5-(oxan-4-yloxy)pyridin-2-yl]furo[3,2-b]pyridin-2-yl]-N-(2-hydroxyethyl)-4-methoxy-N-methylpyridine-2-carboxamide] | < 100 nM | < 100 nM | < 100 nM | –
2 | COc1cc(C(=O)N(C)CCO)ncc1-c1cc2nccc(-c3ccc(N4CC[C@H](F)C4)c(C#N)c3)c2o1 [Compound 379, 5-{7-[3-Cyano-4-((S)-3-fluoro-pyrrolidin-1-yl)-phenyl]-furo[3,2-b]pyridin-2-yl}-4-methoxy-pyridine-2-carboxylic acid (2-hydroxy-ethyl)-methyl-amide] | < 100 nM | < 100 nM | < 100 nM | –
3 | COc1cc(C(=O)N(C)CCO)ncc1-c1cc2nccc(-c3ccc(N4CC[C@@H](F)C4)c(C#N)c3)c2o1 [Compound 380, 5-{7-[3-Cyano-4-((R)-3-fluoro-pyrrolidin-1-yl)-phenyl]-furo[3,2-b]pyridin-2-yl}-4-methoxy-pyridine-2-carboxylic acid (2-hydroxy-ethyl)-methyl-amide] | < 100 nM | < 100 nM | < 100 nM | –
4 | COc1cc(C(=O)N(C)C)ncc1-c1cc2nccc(-c3ccc(OC4CCOCC4)c(C#N)n3)c2o1 [Compound 387, 5-[7-[6-cyano-5-(oxan-4-yloxy)pyridin-2-yl]furo[3,2-b]pyridin-2-yl]-4-methoxy-N,N-dimethylpyridine-2-carboxamide hydrochloride] | 100 to 1000 nM | < 100 nM | < 100 nM | –
5 | COc1cc(C(=O)N(C)C)ncc1-c1cc2nccc(-c3cnc(OC4CCOCC4)c(C#N)c3)c2o1 [Compound 388, 5-[7-[5-cyano-6-(oxan-4-yloxy)pyridin-3-yl]furo[3,2-b]pyridin-2-yl]-4-methoxy-N,N-dimethylpyridine-2-carboxamide] | 100 to 1000 nM | < 100 nM | < 100 nM | –
6 | COc1cc(-c2cc3nccc(-c4ccc(OC5CCOCC5)c(C#N)c4)c3o2)ncc1C(=O)N(C)C [Compound 391, 6-[7-[3-cyano-4-(oxan-4-yloxy)phenyl]furo[3,2-b]pyridin-2-yl]-4-methoxy-N,N-dimethylpyridine-3-carboxamide] | – | < 100 nM | 100 to 1000 nM | 1000 to 5000 nM
7 | COc1cc(-c2cc3nccc(-c4ccc(OC5CCOCC5)c(C#N)c4)c3o2)cnc1C(=O)N(C)C [Compound 393, 5-[7-[3-cyano-4-(oxan-4-yloxy)phenyl]furo[3,2-b]pyridin-2-yl]-3-methoxy-N,N-dimethylpyridine-2-carboxamide] | 1000 to 5000 nM | < 100 nM | 100 to 1000 nM | –
8 | COc1cc(-c2cc3nccc(-c4ccc(NC5CCOCC5)c(C#N)c4)c3o2)cnc1C(=O)N(C)C [Compound 394, 5-(7-[3-cyano-4-[(oxan-4-yl)amino]phenyl]furo[3,2-b]pyridin-2-yl)-3-methoxy-N,N-dimethylpyridine-2-carboxamide] | 1000 to 5000 nM | 100 to 1000 nM | 100 to 1000 nM | –
9 | COc1cc(C(=O)N(C)C)nnc1-c1cc2nccc(-c3ccc(OC4CCOCC4)c(C#N)c3)c2o1 [Compound 395, 6-[7-[3-cyano-4-(oxan-4-yloxy)phenyl]furo[3,2-b]pyridin-2-yl]-5-methoxy-N,N-dimethylpyridazine-3-carboxamide] | 100 to 1000 nM | < 100 nM | < 100 nM | –
10 | COc1cc(C(=O)N[C@H]2[C@@H]3C[C@H]2CN(C)C3)cnc1-c1cc2nccc(-c3ccc(OC4CCOCC4)c(C#N)c3)c2o1 [Compound 397, 6-{7-[3-Cyano-4-(tetrahydro-pyran-4-yloxy)-phenyl]-furo[3,2-b]pyridin-2-yl}-5-methoxy-N-((1S,5R,6R)-3-methyl-3-aza-bicyclo[3.10.1]hept-6-yl)-nicotinamide] | < 100 nM | < 100 nM | < 100 nM | –
11 | COc1cc(C(=O)N[C@@H]2[C@@H]3C[C@H]2CN(C)C3)cnc1-c1cc2nccc(-c3ccc(OC4CCOCC4)c(C#N)c3)c2o1 [Compound 398, 6-{7-[3-Cyano-4-(tetrahydro-pyran-4-yloxy)-phenyl]-furo[3,2-b]pyridin-2-yl}-5-methoxy-N-((1R,5S,6S)-3-methyl-3-aza-bicyclo[3.10.1]hept-6-yl)-nicotinamide] | < 100 nM | < 100 nM | < 100 nM | –
12 | CN(C)C(=O)c1cc(-c2cc3nccc(-c4ccc(OC5CCOCC5)c(C#N)c4)c3o2)n(C)c1 [Compound 400, 5-[7-[3-cyano-4-(oxan-4-yloxy)phenyl]furo[3,2-b]pyridin-2-yl]-N,N,1-trimethyl-1H-pyrrole-3-carboxamide] | – | < 100 nM | < 100 nM | 100 to 1000 nM
13 | COc1c(C(=O)N(C)C)nn(C)c1-c1cc2nccc(-c3ccc(OC4CCOCC4)c(C#N)c3)c2o1 [Compound 401, 5-[7-[3-cyano-4-(oxan-4-yloxy)phenyl]furo[3,2-b]pyridin-2-yl]-4-methoxy-N,N,1-trimethyl-1H-pyrazole-3-carboxamide hydrochloride] | – | < 100 nM | < 100 nM | 100 to 1000 nM
14 | COc1cc(C(=O)N(C)C)n(C)c1-c1cc2nccc(-c3ccc(OC4CCOCC4)c(C#N)c3)c2o1 [Compound 402, 5-[7-[3-cyano-4-(oxan-4-yloxy)phenyl]furo[3,2-b]pyridin-2-yl]-4-methoxy-N,N,1-trimethyl-1H-pyrrole-2-carboxamide] | < 100 nM | < 100 nM | < 100 nM | –
15 | COc1cc(C(=O)N(C)C)cnc1-c1cc2nccc(-c3ccc(OC4CCNCC4(F)F)c(C#N)c3)c2o1 (stereo not drawn) [Compound 403, 6-(7-[3-cyano-4-[(3,3-difluoropiperidin-4-yl)oxy]phenyl]furo[3,2-b]pyridin-2-yl)-5-methoxy-N,N-dimethylpyridine-3-carboxamide] | 100 to 1000 nM | < 100 nM | < 100 nM | –
16 | COc1cc(C(=O)N(C)C)cnc1-c1cc2nccc(-c3ccc(OC4CCN(C)CC4(F)F)c(C#N)c3)c2o1 (stereo not drawn) [Compound 404, 6-(7-[3-cyano-4-[(3,3-difluoro-1-methylpiperidin-4-yl)oxy]phenyl]furo[3,2-b]pyridin-2-yl)-5-methoxy-N,N-dimethylpyridine-3-carboxamide] | 100 to 1000 nM | < 100 nM | < 100 nM | –
17 | COc1cc(C(=O)N2CC3C2CCN3C)cnc1-c1cc2nccc(-c3ccc(OC4CCOCC4)c(C#N)c3)c2o1 (stereo not drawn) [Compound 405, 5-[2-[3-methoxy-5-([2-methyl-2,6-diazabicyclo[3.2.0]heptan-6-yl]carbonyl)pyridin-2-yl]furo[3,2-b]pyridin-7-yl]-2-(oxan-4-yloxy)benzonitrile hydrochloride] | 100 to 1000 nM | < 100 nM | < 100 nM | –
18 | COc1cc(C(=O)N2CC3CCC2CN3C)cnc1-c1cc2nccc(-c3ccc(OC4CCOCC4)c(C#N)c3)c2o1 (stereo not drawn) [Compound 406, 5-[2-[3-methoxy-5-(([5-methyl-2,5-diazabicyclo[2.2.2]octan-2-yl]carbonyl)pyridin-2-yl]furo[3,2-b]pyridin-7-yl]-2-(oxan-4-yloxy)benzonitrile hydrochloride] | < 100 nM | < 100 nM | < 100 nM | –
